Data: US7378375B1, “Substituted pyridine herbicides” (Syngenta Crop Protection, Inc., priority 2000, dated 2008)

Legend:
[1] = tested on: Monocotyledonous and dicotyledonous test plants; experiment: Post-emergence herbicidal action, greenhouse pot test, sprayed at the 2- to 3-leaf stage, 9-level rating after 2 to 3 weeks; format: in vivo; set-up: key: 9-level scale: 1 = complete damage, 9 = no effect; conditions: 250 g/ha, rated after 2 to 3 weeks, 9-level scale
Method: Post-Emergence Herbicidal Action
Monocotyledonous and dicotyledonous test plants are grown in standard soil in pots. At the 2- to 3-leaf stage of the test plants, the test substances are sprayed at optimum dosage (500 l of water/ha) as an aqueous suspension (prepared from a wettable powder (example F3, b) according to WO 97/34485) or emulsion (prepared from an emulsion concentrate (example F1, c) according to WO 97/34485). The test plants are then grown further under optimum conditions in a greenhouse.
After a test period of 2 to 3 weeks, the test is evaluated using a 9-level scale of rating (1=complete damage, 9=no effect). Ratings of 1 to 4 (in particular 1 to 3) mean good to very good herbicidal action.

[2] = tested on: Monocotyledonous and dicotyledonous test plants; experiment: Herbicidal action before emergence of the plants (pre-emergence action), greenhouse pot test, 9-level rating after 4 weeks; format: in vivo; set-up: key: 9-level scale: 1 = complete damage, 9 = no effect; conditions: 250 g/ha, rated after 4 weeks, 9-level scale
Method: Herbicidal Action Before Emergence of the Plants (Pre-Emergence Action)
Monocotyledonous and dicotyledonous test plants are sown in standard soil in pots. Immediately after sowing, the test substances are sprayed on at an optimum dosage (500 l of water/ha) as an aqueous suspension (prepared from a wettable powder (example F3, b) according to WO 97/34485) or emulsion (prepared from an emulsion concentrate (example F1, c) according to WO 97/34485). The test plants are then grown under optimum conditions in a greenhouse.
After a test period of 4 weeks, the test is evaluated using a 9-level scale of ratings (1=complete damage, 9=no effect). Ratings of 1 to 4 (in particular 1 to 3) mean good to very good herbicidal action.

| Structure (SMILES) | Post-emergence action rating, Abutilon [1] | Post-emergence action rating, Amaranth [1] | Post-emergence action rating, Chenop. [1] | Post-emergence action rating, Digitaria [1] | Post-emergence action rating, Echino. [1] | Post-emergence action rating, Ipopur. [1] | Post-emergence action rating, Panicum [1] | Post-emergence action rating, Xanth. [1] | Pre-emergence action rating, Abutilon [2] | Pre-emergence action rating, Amaranthus [2] | Pre-emergence action rating, Chenop. ([2]; Chenop.) | Pre-emergence action rating, Digitaria [2] | Pre-emergence action rating, Echino. [2] | Pre-emergence action rating, Panicum [2] |
| --- | --- | --- | --- | --- | --- | --- | --- | --- | --- | --- | --- | --- | --- | --- |
| CSc1nnc(SCc2nc(C(F)(F)F)ccc2C(=O)C2=C(O)CCCC2=O)s1 [A829-B1] | 7 | 2 | 2 | 9 | 7 | 6 | 7 | 4 |  |  |  |  |  |  |
| COCCOCCOCCOCc1nc(C(F)(F)F)ccc1C(=O)C1=C(O)C2CCC(C2)C1=O (centres unmarked) [A858-B52] | 2 | 1 | 2 | 2 | 2 | 2 | 2 | 2 |  |  |  |  |  |  |
| O=C(C1=C(O)C2CCC(C2)C1=O)c1ccc(C(F)(F)F)nc1COCCOCc1ccccc1 (centres unmarked) [A855-B52] | 2 | 2 | 1 | 2 | 2 | 2 | 2 | 2 |  |  |  |  |  |  |
| COCC(Br)COCc1nc(C(F)(F)F)ccc1C(=O)C1=C(O)C2CCC(C2)C1=O (centres unmarked) [A853-B52] |  |  |  |  |  |  |  |  | 1 | 1 | 2 | 1 | 2 | 1 |
| CN(Cc1nc(C(F)(F)F)ccc1C(=O)c1cnn(C)c1O)S(C)(=O)=O [A864-C5] | 2 | 1 | 1 | 2 | 2 | 2 | 1 | 2 |  |  |  |  |  |  |
| O=C(C1=C(O)C2CCC(C2)C1=O)c1ccc(C(F)(F)F)nc1COCc1cccs1 (centres unmarked) [A854-B52] | 2 | 1 | 1 | 2 | 2 | 2 | 1 | 2 |  |  |  |  |  |  |
| CCCCCCCC(=O)OCCOCc1nc(C(F)(F)F)ccc1C(=O)C1=C(O)C2CCC(C2)C1=O (centres unmarked) [A860-B52] | 2 | 2 | 1 | 1 | 2 | 2 | 2 | 2 |  |  |  |  |  |  |
| CSc1nnc(SCc2nc(C(F)(F)F)ccc2C(=O)C2=C(O)C3CCC(C3)C2=O)s1 (centres unmarked) [A829-B52] | 3 | 2 | 2 | 6 | 4 | 4 | 2 | 6 |  |  |  |  |  |  |
| Cn1ncc(C(=O)c2ccc(C(F)(F)F)nc2COCC(F)(F)F)c1O [A834-C5] |  |  |  |  |  |  |  |  | 1 | 2 |  | 3 | 1 | 1 |
| O=C(C1=C(O)C2CCC(C2)C1=O)c1ccc(C(F)(F)F)nc1COCCOCOCc1ccccc1 (centres unmarked) [A857-B52] | 2 | 2 | 1 | 2 | 2 | 2 | 2 | 2 |  |  |  |  |  |  |
| C[S+]([O-])CCOCc1nc(C(F)(F)F)ccc1C(=O)C1=C(O)C2CCC(C2)C1=O (centres unmarked) [A818-B52] | 2 | 2 | 1 | 2 | 3 | 2 | 2 | 2 |  |  |  |  |  |  |
| CCOC(C)OCCOCc1nc(C(F)(F)F)ccc1C(=O)C1=C(O)C2CCC(C2)C1=O (centres unmarked) [A859-B52] | 2 | 2 | 1 | 2 | 2 | 2 | 1 | 2 |  |  |  |  |  |  |
| CC(C)(C)C(=O)OC1=C(C(=O)c2ccc(C(F)(F)F)nc2COCCO)C(=O)C2CCC1C2 (centres unmarked) [A856-B112] | 2 | 3 | 1 | 3 | 5 | 3 | 3 | 3 |  |  |  |  |  |  |
| CS(=O)(=O)OCCOCc1nc(C(F)(F)F)ccc1C(=O)C1=C(O)C2CCC(C2)C1=O (centres unmarked) [A862-B52] | 3 | 2 | 1 | 2 | 3 | 5 | 2 | 2 |  |  |  |  |  |  |
| CC(=O)OCCOCc1nc(C(F)(F)F)ccc1C(=O)C1=C(O)C2CCC(C2)C1=O (centres unmarked) [A861-B52] | 3 | 2 | 1 | 3 | 5 | 2 | 2 | 2 |  |  |  |  |  |  |
| CN(Cc1nc(C(F)(F)F)ccc1C(=O)C1=C(O)C2CCC(C2)C1=O)S(C)(=O)=O (centres unmarked) [A864-B52] | 2 | 2 | 1 | 2 | 2 | 2 | 2 | 2 |  |  |  |  |  |  |
| COc1ccccc1OCc1nc(C(F)(F)F)ccc1C(=O)C1=C(O)C2CCC(C2)C1=O (centres unmarked) [A33-B52] | 2 | 2 | 1 | 2 | 2 | 2 | 2 | 3 |  |  |  |  |  |  |
| O=C(C1=C(O)C2CCC(C2)C1=O)c1ccc(C(F)(F)F)nc1COCCO (centres unmarked) [A856-B52] | 2 | 2 | 1 | 2 | 2 | 1 | 2 | 2 |  |  |  |  |  |  |
| CSCCOCc1nc(C(F)(F)F)ccc1C(=O)C1=C(O)C2CCC(C2)C1=O (centres unmarked) [A817-B52] | 2 | 2 | 1 | 2 | 2 | 2 | 1 | 2 |  |  |  |  |  |  |
| O=C(C1=C(O)C2CCC(C2)C1=O)c1ccc(C(F)(F)F)nc1COCCCOCc1ccccc1 (centres unmarked) [A863-B52] | 2 | 2 | 1 | 2 | 3 | 3 | 2 | 2 |  |  |  |  |  |  |
